{"source": "paper PMC5522311", "about": "“Adapting AlphaLISA high throughput screen to discover a novel small-molecule inhibitor targeting protein arginine methyltransferase 5 in pancreatic and colorectal cancers” (Oncotarget, 2017)", "biological_target": "T1, protein arginine methyltransferase 5 (PRMT5) (Homo sapiens, UniProt O14744)", "T1 construct": "Flag-tagged WT-PRMT5 purified from 293 cells with anti-Flag-M2 beads", "T1 sequence (O14744 2-637)": "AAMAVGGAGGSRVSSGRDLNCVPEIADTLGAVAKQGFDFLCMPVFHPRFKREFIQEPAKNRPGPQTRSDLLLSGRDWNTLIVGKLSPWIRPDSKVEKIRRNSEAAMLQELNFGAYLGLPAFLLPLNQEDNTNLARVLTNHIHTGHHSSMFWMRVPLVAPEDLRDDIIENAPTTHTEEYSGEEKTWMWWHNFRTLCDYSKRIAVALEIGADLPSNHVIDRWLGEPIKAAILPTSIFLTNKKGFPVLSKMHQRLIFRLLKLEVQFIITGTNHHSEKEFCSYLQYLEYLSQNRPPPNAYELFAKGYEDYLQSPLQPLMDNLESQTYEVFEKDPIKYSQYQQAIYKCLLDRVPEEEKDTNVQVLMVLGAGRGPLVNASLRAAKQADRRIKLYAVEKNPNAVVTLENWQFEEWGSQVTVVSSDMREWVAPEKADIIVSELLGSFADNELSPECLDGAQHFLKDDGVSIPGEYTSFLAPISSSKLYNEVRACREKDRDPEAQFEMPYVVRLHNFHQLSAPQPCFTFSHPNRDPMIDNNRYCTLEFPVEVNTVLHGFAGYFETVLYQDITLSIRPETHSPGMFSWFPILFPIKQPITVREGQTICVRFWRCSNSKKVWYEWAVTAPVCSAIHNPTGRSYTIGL", "experiment": "AlphaLISA methyltransferase assay (biotinylated histone H4 R3 symmetric dimethylation)", "format": "biochemical", "data": [{"smiles": "Cc1ccc(Nc2nc(NCCN(C)C)nc3c2cnn3-c2ccccc2)cc1C", "note": "[PR5-LL-CM01]", "values": [{"measurement": "IC50", "value": 7.5, "unit": "µM"}]}]}
